According to patent publication US5859257A, “Isoxazole compounds as cyclooxygenase inhibitors” (G. D. Searle & Co., priority 1996, dated 1999):

Experiments:
COX-2 = assay: Evaluation of COX-2 activity in vitro (PGE2 ELISA, recombinant enzyme); format: biochemical, human or murine; details: arachidonic acid 10 μM, pH 8.0, pre-incubation 10-20 minutes
Protocol: The COX-2 inhibition activity of the compounds of this invention illustrated in the Examples was determined by the following methods.
(§1) a. Preparation of recombinant COX baculoviruses
(§2) Recombinant COX-1 and COX-2 were prepared as scribed by Gierse et al, [J. Biochem., 305, 479-84 (1995)]. […] Recombinant baculoviruses were isolated by transfecting 4 μg of baculovirus transfer vector DNA into SF9 insect cells (2×10^8) along with 200 ng of linearized baculovirus plasmid DNA by the calcium phosphate method. See M. D. Summers and G. E. Smith, A Manual of Methods for Baculovirus Vectors and Insect Cell Culture Procedures, Texas Agric. Exp. Station Bull. 1555 (1987). Recombinant viruses were purified by three rounds of plaque purification and high titer (10^7 -10^8 pfu/mL) stocks of virus were prepared. For large scale production, SF9 insect cells were infected in 10 liter fermentors (0.5×10^6 /mL) with the recombinant baculovirus stock such that the multiplicity of infection was 0.1. After 72 hours the cells were centrifuged and the cell pellet homogenized in Tris/Sucrose (50 mM: 25%, pH 8.0) containing 1% 3-[(3-cholamidopropyl)dimethylammonio]-1-propanesulfonate (CHAPS). The nomogenate was centrifuged at 10,000×G for 30 minutes, and the resultant supernatant was stored at -80° C. before being assayed for COX activity.
(§3) COX activity was assayed as PGE2 formed/μg protein/time using an ELISA to detect the prostaglandin released. CHAPS-solubilized insect cell membranes containing the appropriate COX enzyme were incubated in a potassium phosphate buffer (50 mM, pH 8.0) containing epinephrine, phenol, and heme with the addition of arachidonic acid (10 μM). […] Any reaction between the arachidonic acid and the enzyme was stopped after ten minutes at 37° C./room temperature by transferring 40 μl of reaction mix into 160 μl ELISA buffer and 25 μM indomethacin. The PGE2 formed was measured by standard ELISA technology (Cayman Chemical).

COX-1 = assay: Evaluation of COX-1 activity in vitro (PGE2 ELISA, recombinant enzyme); format: biochemical, human or murine; details: arachidonic acid 10 μM, pH 8.0, pre-incubation 10-20 minutes
Protocol: as §1, §2, §3

SMILES | IC50 (COX-2) | IC50 (COX-1)
COc1ccc(-c2noc(C)c2-c2ccc(S(N)(=O)=O)cc2)cc1F [Example 4, 4-[3-(3-Fluoro-4-methoxyphenyl)-5-methylisoxazol-4-yl]benzenesulfonamide] | 3 µM | > 100 µM
Cc1onc(-c2ccccc2)c1-c1ccc(S(C)(=O)=O)cc1 [Example 5, 5-Methyl-4-[4-(methylsulfonyl)phenyl]-3-phenylisoxazole] | 4 µM | > 100 µM
COc1ccc(-c2noc(CC(=O)O)c2-c2ccc(S(C)(=O)=O)cc2)cc1F [Example 6, [3-[3-Fluoro-4-methoxyphenyl]-4-[4-(methylsulfonyl)phenyl]isoxazol-5-yl]acetic acid] | 35.7 µM | > 100 µM
COc1ccc(-c2noc(C)c2-c2ccc(S(C)(=O)=O)cc2)cc1Cl [Example 7, 3-(3-Chloro-4-methoxyphenyl)-5-methyl-4-[4-methylsulfonylphenyl]isoxazole] | 86.7 µM | > 100 µM
CS(=O)(=O)c1ccc(-c2c(-c3ccccc3)noc2CC(=O)O)cc1 [Example 8, [4-[4-(methylsulfonyl)phenyl]-3-phenylisoxazol-5-yl]acetic acid] | > 100 µM | > 100 µM
NS(=O)(=O)c1ccc(-c2c(-c3ccccc3)noc2CC(=O)O)cc1 [Example 9, [4-[4-(Aminosulfonyl)phenyl]-3-phenylisoxazol-5-yl]acetic acid] | – | > 100 µM
NS(=O)(=O)c1ccc(-c2c(-c3ccccc3)noc2C(=O)O)cc1 [Example 11, [4-[4-(Aminosulfonyl)phenyl]-3-phenylisoxazol-5-yl]carboxylic acid] | 35 µM | –
NS(=O)(=O)c1ccc(-c2c(-c3ccccc3)noc2O)cc1 [Example 12, 4-[5-Hydroxy-3-phenylisoxazol-4-yl]benzenesulfonamide] | 2.5 µM | > 100 µM
Cc1noc(-c2ccccc2)c1-c1ccc(S(N)(=O)=O)cc1 [Example 13, 4-[3-Methyl-5-phenylisoxazol-4-yl]benzenesulfonamide] | – | 6.4 µM
CC(C)c1noc(-c2ccccc2)c1-c1ccc(S(N)(=O)=O)cc1 [Example 15, 4-[3-isopropyl-5-phenylisoxazol-4-yl]benzenesulfonamide] | 0.1 µM | 59 µM
CCCc1noc(-c2ccccc2)c1-c1ccc(S(N)(=O)=O)cc1 [Example 16, 4-[5-Phenyl-3-propylisoxazol-4-yl]benzenesulfonamide] | 3.1 µM | > 100 µM
CCc1noc(-c2ccc(C)cc2)c1-c1ccc(S(N)(=O)=O)cc1 [Example 17, 4-[3-Ethyl-5-(4-methylphenyl)isoxazol-4-yl]benzenesulfonamide] | 2.1 µM | > 100 µM
CCCCc1noc(-c2ccccc2)c1-c1ccc(S(N)(=O)=O)cc1 [Example 18, 4-[3-Butyl-5-phenylisoxazol-4-yl]benzenesulfonamide] | 0.6 µM | > 100 µM
Cc1ccc(-c2onc(C)c2-c2ccc(S(N)(=O)=O)cc2)cc1 [Example 19, 4-[3-Methyl-5-(4-methylphenyl)isoxazol-4-yl]benzenesulfonamide] | 8.7 µM | > 100 µM
Cc1noc(-c2ccc(Cl)cc2)c1-c1ccc(S(N)(=O)=O)cc1 [Example 20, 4-[5-(4-chlorophenyl)-3-methylisoxazol-4-yl]benzenesulfonamide] | 4.7 µM | > 100 µM
Cc1noc(-c2ccc(F)cc2)c1-c1ccc(S(N)(=O)=O)cc1 [Example 21, 4-[5-(4-fluorophenyl)-3-methylisoxazol-4-yl]benzenesulfonamide] | 5.2 µM | > 100 µM
Cc1noc(-c2ccc(S(C)(=O)=O)cc2)c1-c1ccccc1 [Example 22, 3-Methyl-5-(4-methylsulfonylphenyl)-4-phenylisoxazole] | 5.3 µM | > 100 µM
CCc1noc(-c2ccccc2)c1-c1ccc(S(C)(=O)=O)cc1 [Example 29, 3-Ethyl-4-(4-methylsulfonylphenyl)-5-phenylisoxazole] | – | > 100 µM
CCc1noc(-c2cccc(C)c2)c1-c1ccc(S(N)(=O)=O)cc1 [Example 32, 4-[3-Ethyl-5-(3-methylphenyl)isoxazol-4-yl]benzenesulfonamide] | – | 76 µM
Cc1onc(-c2ccc(F)c(F)c2)c1-c1ccc(S(N)(=O)=O)cc1 [Example 49, 4-[3-(3,4-Difluorophenyl)-5-methylisoxazol-4-yl]benzenesulfonamide] | – | > 100 µM

Continued, values first:

IC50 (COX-2) | IC50 (COX-1) | SMILES
< 0.1 µM | 17.4 µM | CCc1onc(-c2ccccc2)c1-c1ccc(S(N)(=O)=O)cc1 [Example 1a, 4-[5-ethyl-3-phenylisoxazol-4-yl]benzenesulfonamide]
< 0.1 µM | 13.2 µM | CCCc1onc(-c2ccccc2)c1-c1ccc(S(N)(=O)=O)cc1 [Example 1b, 4-[5-propyl-3-phenylisoxazol-4-yl]benzenesulfonamide]
< 0.1 µM | 6.2 µM | CC(C)c1onc(-c2ccccc2)c1-c1ccc(S(N)(=O)=O)cc1 [Example 1c, 4-[5-isopropyl-3-phenylisoxazol-4-yl]benzenesulfonamide]
< 0.1 µM | 25.8 µM | CCCCc1onc(-c2ccccc2)c1-c1ccc(S(N)(=O)=O)cc1 [Example 1d, 4-[5-butyl-3-phenylisoxazol-4-yl]benzenesulfonamide]
< 0.1 µM | 37.7 µM | CC(C)Cc1onc(-c2ccccc2)c1-c1ccc(S(N)(=O)=O)cc1 [Example 1e, 4-[5-isobutyl-3-phenylisoxazol-4-yl]benzenesulfonamide]
– | 54 µM | NS(=O)(=O)c1ccc(-c2c(-c3ccccc3)noc2C2CCCCC2)cc1 [Example 1f, 4-[5-cyclohexyl-3-phenylisoxazol-4-yl]benzenesulfonamide]
< 0.1 µM | > 100 µM | CC(C)(C)Cc1onc(-c2ccccc2)c1-c1ccc(S(N)(=O)=O)cc1 [Example 1g, 4-[5-neopentyl-3-phenylisoxazol-4-yl]benzenesulfonamide]
< 0.1 µM | 4.7 µM | NS(=O)(=O)c1ccc(-c2c(-c3ccccc3)noc2CC2CCCCC2)cc1 [Example 1h, 4-[5-cyclohexylmethyl-3-phenylisoxazol-4-yl]benzenesulfonamide]
< 0.1 µM | 8.6 µM | NS(=O)(=O)c1ccc(-c2c(-c3ccccc3)noc2Cc2ccc(Cl)cc2)cc1 [Example 1i, 4-[5-(4-chlorophenyl)methyl-3-phenylisoxazol-4-yl]benzenesulfonamide]
< 0.1 µM | 50.7 µM | NS(=O)(=O)c1ccc(-c2c(-c3ccccc3)noc2CCl)cc1 [Example 1k, 4-[5-chloromethyl-3-phenylisoxazol-4-yl]benzenesulfonamide]
1.5 µM | > 100 µM | Cc1onc(-c2ccccc2)c1-c1ccc(S(=O)(=O)O)cc1 [Example 1l, 4-[5-methyl-3-phenylisoxazol-4-yl]benzenesulfonic acid]
51 µM | > 100 µM | CCCc1onc(-c2ccccc2)c1-c1ccc(S(=O)(=O)O)cc1 [Example 1m, 4-[5-propyl-3-phenylisoxazol-4-yl]benzenesulfonic acid]
< 0.1 µM | > 100 µM | COCc1onc(-c2ccccc2)c1-c1ccc(S(N)(=O)=O)cc1 [Example 1n, 4-[5-methoxymethyl-3-phenylisoxazol-4-yl]benzenesulfonamide]
0.1 µM | > 100 µM | NS(=O)(=O)c1ccc(-c2c(-c3ccccc3)noc2CCCO)cc1 [Example 1o, 4-[5-(3-hydroxypropyl)-3-phenylisoxazol-4-yl]benzenesulfonamide]
< 0.1 µM | 90.5 µM | Cc1onc(-c2ccc(Cl)cc2)c1-c1ccc(S(N)(=O)=O)cc1 [Example 4a, 4-[3-(4-chlorophenyl)-5-methyl-isoxazol-4-yl]benzenesulfonamide]
< 0.1 µM | > 100 µM | Cc1onc(-c2ccc(F)cc2)c1-c1ccc(S(N)(=O)=O)cc1 [Example 4b, 4-[3-(4-fluorophenyl)-5-methyl-isoxazol-4-yl]benzenesulfonamide]
< 0.1 µM | 66.5 µM | Cc1ccc(-c2noc(C)c2-c2ccc(S(N)(=O)=O)cc2)cc1F [Example 4c, 4-[3-(3-fluoro-4-methylphenyl)-5-methyl-isoxazol-4-yl]benzenesulfonamide]
< 0.1 µM | 44 µM | Cc1ccc(-c2noc(C)c2-c2ccc(S(N)(=O)=O)cc2)cc1Cl [Example 4d, 4-[3-(3-chloro-4-methylphenyl)-5-methyl-isoxazol-4-yl]benzenesulfonamide]
2 µM | > 100 µM | Cc1onc(-c2cccnc2)c1-c1ccc(S(N)(=O)=O)cc1 [Example 4e, 4-[5-methyl-3-(3-pyridyl)isoxazol-4-yl]benzenesulfonamide]
> 100 µM | > 100 µM | Cc1onc(-c2ccncc2)c1-c1ccc(S(N)(=O)=O)cc1 [Example 4f, 4-[5-methyl-3-(4-pyridyl)-isoxazol-4-yl]benzenesulfonamide]
